Data published in US20130216498A1, “IMIDAZOPYRIDINE DERIVATIVES AS JAK INHIBITORS” (priority 2009, published 2013).
pIC50: −log10 of the molar value.

Assays:
Assay type in all cases: biochemical
[1] = biological target: T1, human JAK2 (aa 826-1132) catalytic domain (Homo sapiens, UniProt O60674); assay: In vitro JAK kinase assay (TR-FRET), JAK2; conditions: GST-fusion catalytic domain; ATP 0.2 μM; poly (GT)-Biotin 20 nM; 30 minutes at room temperature
T1 construct: JAK2 (aa 826-1132); GST (N); purchased Carna Biosciences; host or cells: baculovirus expression system
Protocol: (§1) Compounds were screened for their ability to inhibit JAK1, JAK2 and JAK3 using the assays as indicated below.
(§2) The catalytic domains of human JAK1 (aa 850-1154), JAK2 (aa 826-1132), JAK3 (aa 795-1124) and Tyk2 (aa 871-1187) were expressed as N-terminal GST-fusion proteins using a baculovirus expression system and were purchased from Carna Biosciences. The enzymatic activity was assayed using as substrate a biotinylated peptide, poly (GT)-Biotin (CisBio). The peptide concentration in the reactions was 60 nM for JAK1, 20 nM for JAK2, 140 nM for JAK3 and 50 nM for Tyk2. The degree of phosphorylation was detected by TR-FRET (time-resolved fluorescence energy transfer).
(§3) IC50s of compounds were measured for each kinase in a reaction mixture containing the enzyme, ATP and the peptide in 8 mM MOPS (pH 7.0), 10 mM MgCl2, 0.05% β-mercaptoethanol, 0.45 mg/mL BSA. The ATP concentration in the reactions was 3 μM for JAK1, 0.2 μM for JAK2, 0.6 μM for JAK3 and 1.8 μM for Tyk2. The enzymatic reactions took place for 30 minutes at room temperature. Then, the reactions were stopped with 20 μL of quench detection buffer (50 mM HEPES, 0.5 M KF, EDTA 0.25 M, 0.1% (w/v) BSA, pH 7.5) containing 0.115 μg/mL of anti-phosphoTyr (PT66)-Cryptate (CisBio) and a variable concentration of SA-XL665 (CisBio) to keep the SA-B ratio constant. Incubate for 3 h and read on Victor 2V spectrofluorometer (PerkinElmer) set to read fluorescence resonance energy transfer.

[2] = biological target: T2, human JAK3 (aa 795-1124) catalytic domain (Homo sapiens, UniProt P52333); assay: In vitro JAK kinase assay (TR-FRET), JAK3; conditions: GST-fusion catalytic domain; ATP 0.6 μM; poly (GT)-Biotin 140 nM; 30 minutes at room temperature
T2 construct: JAK3 (aa 795-1124); GST (N); purchased Carna Biosciences; host or cells: baculovirus expression system
Protocol: as §1, §2, §3

[3] = biological target: T3, human JAK1 (aa 850-1154) catalytic domain (Homo sapiens, UniProt P23458); assay: In vitro JAK kinase assay (TR-FRET), JAK1; conditions: GST-fusion catalytic domain; ATP 3 μM; poly (GT)-Biotin 60 nM; 30 minutes at room temperature
T3 construct: human JAK1 (aa 850-1154); GST (N); purchased Carna Biosciences; host or cells: baculovirus expression system
Protocol: as §1, §2, §3

T3 sequence (P23458 850-1154): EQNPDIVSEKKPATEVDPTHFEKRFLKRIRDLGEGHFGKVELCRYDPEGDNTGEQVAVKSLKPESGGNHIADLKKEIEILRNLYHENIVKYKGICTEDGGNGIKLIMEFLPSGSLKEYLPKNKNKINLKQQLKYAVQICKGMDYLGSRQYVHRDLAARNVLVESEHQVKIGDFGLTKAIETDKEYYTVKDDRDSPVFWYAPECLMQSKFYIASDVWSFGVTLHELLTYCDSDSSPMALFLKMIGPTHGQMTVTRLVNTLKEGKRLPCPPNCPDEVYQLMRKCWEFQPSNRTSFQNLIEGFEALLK
T1 sequence (O60674 826-1132): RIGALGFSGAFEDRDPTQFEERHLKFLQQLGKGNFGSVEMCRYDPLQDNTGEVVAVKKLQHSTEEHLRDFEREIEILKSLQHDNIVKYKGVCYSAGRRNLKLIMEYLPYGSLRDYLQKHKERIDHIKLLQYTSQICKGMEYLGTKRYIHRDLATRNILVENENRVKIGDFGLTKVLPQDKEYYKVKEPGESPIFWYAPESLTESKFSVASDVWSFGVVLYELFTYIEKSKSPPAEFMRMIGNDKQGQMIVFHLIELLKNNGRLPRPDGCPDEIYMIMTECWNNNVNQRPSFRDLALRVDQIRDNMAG
T2 sequence (P52333 795-1124): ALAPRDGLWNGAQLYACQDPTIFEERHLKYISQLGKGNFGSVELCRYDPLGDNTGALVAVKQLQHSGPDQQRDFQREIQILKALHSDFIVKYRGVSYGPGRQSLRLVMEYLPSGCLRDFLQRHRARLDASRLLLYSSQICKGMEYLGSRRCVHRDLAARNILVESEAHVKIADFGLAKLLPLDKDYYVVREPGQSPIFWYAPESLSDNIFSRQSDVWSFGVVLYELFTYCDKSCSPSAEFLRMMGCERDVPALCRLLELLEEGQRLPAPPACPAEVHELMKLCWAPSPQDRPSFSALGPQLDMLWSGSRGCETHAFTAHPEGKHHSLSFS

| pIC50 [1] | pIC50 [2] | pIC50 [3] | SMILES |
| --- | --- | --- | --- |
| 6.00 to 7.00 | < 6.00 | < 6.00 | C[C@H](Nc1cncc(-c2cnc3ccc(-c4ccccc4)cn23)n1)c1ccccc1 [Example 42, N-[(1S)-1-Phenylethyl]-6-(6-phenylimidazo[1,2-a]pyridin-3-yl)pyrazin-2-amine] |
| > 7.00 | 6.00 to 7.00 | 6.00 to 7.00 | CC(C)(C)CNc1ccnc(-c2cnc3ccccn23)n1 [Example 31, N-(2,2-Dimethylpropyl)-2-imidazo[1,2-a]pyridin-3-ylpyrimidin-4-amine] |
| > 7.00 | > 7.00 | 6.00 to 7.00 | N#CCC(=O)N1CCC[C@@H](Nc2cc(-n3cncn3)nc(-c3cnc4ccc(F)cn34)n2)C1 [Example 164, (R)-3-(3-(2-(6-Fluoroimidazo[1,2-a]pyridin-3-yl)-6-(M−1,2,4-triazol-1-yl)pyrimidin-4-ylamino)piperidin-1-yl)-3-oxopropanenitrile] |
| > 7.00 | > 7.00 | 6.00 to 7.00 | N#Cc1ccc2ncc(-c3nccc(NC4CCCCC4)n3)n2c1 [Example 21, 3-[4-(Cyclohexylamino)pyrimidin-2-yl]imidazo[1,2-a]pyridine-6-carbonitrile] |
| > 7.00 | 6.00 to 7.00 | < 6.00 | O=C(C1CC1(F)F)N1CCC[C@@H](Nc2ccnc(-c3cnc4ccc(F)cn34)n2)C1 (stereo partly drawn) [Example 102, (2,2-Difluorocyclopropyl)((R)-3-(2-(6-fluoroimidazo[1,2-a]pyridin-3-yl)pyrimidin-4-ylamino)piperidin-1-yl)methanone] |
| > 7.00 | 6.00 to 7.00 | < 6.00 | Nc1cnc(-c2cnc3ccc(F)cn23)nc1NC1CCCc2ncccc21 (stereo not drawn) [Example 137, 2-(6-Fluoroimidazo[1,2-a]pyridin-3-yl)-N^4-(5,6,7,8-tetrahydroquinolin-5-yl)pyrimidine-4,5-diamine] |
| > 7.00 | > 7.00 | 6.00 to 7.00 | COc1cnc(-c2cnc3ccc(F)cn23)nc1N[C@@H]1CCCN(C(=O)CC#N)C1 [Example 163, (R)-3-(3-(2-(6-Fluoroimidazo[1,2-a]pyridin-3-yl)-5-methoxypyrimidin-4-ylamino)piperidin-1-yl)-3-oxopropanenitrile] |
| > 7.00 | 6.00 to 7.00 | 6.00 to 7.00 | Cc1cnc(-c2cnc3ccc(F)cn23)nc1N[C@@H]1CCN(C(=O)CC#N)C1 [Example 134, (R)-3-(3-(2-(6-Fluoroimidazo[1,2-a]pyridin-3-yl)-5-methylpyrimidin-4-ylamino)pyrrolidin-1-yl)-3-oxopropanenitrile] |
| > 7.00 | 6.00 to 7.00 | 6.00 to 7.00 | O=C(c1cn[nH]c1)N1CCC[C@@H](Nc2ccnc(-c3cnc4ccc(F)cn34)n2)C1 [Example 67, 2-(6-Fluoroimidazo[1,2-a]pyridin-3-yl)-N-[(3R)-1-(1H-pyrazol-4ylcarbonyl)piperidin-3-yl]pyrimidin-4-amine] |
| 6.00 to 7.00 | 6.00 to 7.00 | < 6.00 | CC(C)S(=O)(=O)N1CCC[C@@H](Nc2ccnc(-c3cnc4ccc(C#N)cn34)n2)C1 [Example 45, 3-(4-{[(3R)-1-(Isopropylsulfonyl)piperidin-3-yl]amino}pyrimidin-2-yl)imidazo[1,2-a]pyridine-6-carbonitrile] |
| > 7.00 | 6.00 to 7.00 | < 6.00 | O=C(CC(F)(F)F)N1CCC[C@@H](N(CC2CC2)c2ccnc(-c3cnc4ccc(F)cn34)n2)C1 [Example 76, N-(Cyclopropylmethyl)-2-(6-fluoroimidazo[1,2-a]pyridin-3-yl)-N-[(3R)-1-(3,3,3-trifluoropropanoyl)piperidin-3-yl]pyrimidin-4-amine] |
| 6.00 to 7.00 | 6.00 to 7.00 | < 6.00 | COCCNc1ccnc(-c2cnc3ccc(C#N)cn23)n1 [Example 6, 3-{4[(2-Methoxyethyl)amino]pyrimidin-2-yl}imidazo[1,2-a]pyridine-6-carbonitrile] |
| 6.00 to 7.00 | 6.00 to 7.00 | < 6.00 | CC(C)(C)CNc1nc(-c2cnc3ccc(C#N)cn23)ncc1-c1cccnc1 [Example 13, 3-{4-[(2,2-Dimethylpropyl)amino]-5-pyridin-3-ylpyrimidin-2-yl}imidazo[1,2-a]pyridine-6-carbonitrile] |
| > 7.00 | > 7.00 | > 7.00 | Nc1cnc(-c2cnc3ccc(F)cn23)nc1NCc1ccc(F)cn1 [Example 136] |
